Test results taken from patent publication US3935309A, “Synergistic combinations of phosphonomycin and bacteriostatic agents” (Merck & Co., Inc., priority 1974, dated 1976).

Experiments:
[1] = system: Klebsiella pneumoniae "B"; assay: Combined antibiotic therapy of experimental infection in mice (Example 5); format: in vivo, mice infected with Klebsiella pneumoniae "B"; conditions: 7 LD50
From the text: (§1) For example, using Escherichia coli 2017 as the infecting agent, sodium phosphonomycin was titrated alone and in the presence 5 and also in the presence of 0.5γtetracycline, while tetracycline was titrated alone and in the presence of 50γ, and also in the presence of 5γof sodium phosphonomycin. The two drugs were given by the subcutaneous route at separate sites on the ventral surface of the mouse. Such therapy was given only at the time of infection for the Escherichia coli and Pseudomonas aeruginosa tests but both at the time of infection and 6 hours later for all other tests. Infection was given intraperitoneally using broth suspensions of the test organism.

[2] = system: Streptococcus pyogenes 3009; assay: as above; format: in vivo, mice infected with Streptococcus pyogenes 3009; conditions: 6 LD50
From the text: as §1

[3] = alone, therapy at 0 and 6 hours, phosphonomycin as sodium salt
[4] = phosphonomycin titrated, novobiocin constant 100
[5] = phosphonomycin titrated, novobiocin constant 1000

## C[C@@H]1O[C@@H]1P(=O)(O)O [Phosphonomycin, (-) (cis-1,2-epoxypropyl)phosphonic acid]
[1]; alone
  % ED50: 100%
[1]; [3]
  s.c. ED50: 2130 µg
[1]; [4]
  % ED50: 52%
  s.c. ED50: 1110 µg
[1]; [5]
  % ED50: 14%
  s.c. ED50: 298 µg
[2]; alone
  % ED50: 100%
  % ED50, Combined %: 100%
[2]; [3]
  s.c. ED50: 1400 µg
[2]; tetracycline titrated, phosphonomycin constant 500
  % ED50: 64%
[2]; tetracycline titrated, phosphonomycin constant 1000
  % ED50: 71%
